Experiment [1] has as its target Human MER (residues 528-999) (Homo sapiens (Human), UniProt Q12866). The experiment can be described thus: Human Mer kinase assay, HTRF KinEase (Example C-2). Format: biochemical. Particulars: protocol of Example C-2 (other compounds). The essentials: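 Recombinant MER 528-999 (1 ng/well) in buffer with 5 mM MgCl2 and 1 mM DTT was reacted with biotinylated peptide and ATP at Km (40 μM) for 60 min at room temperature. EDTA stop with SA-XL665 and Eu3+ TK antibody, then 665/620 nm HTRF read; IC50 from 4-parameter fit.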

The target of experiment [2] is Mer (phospho-Mer, MERTK-transfected 293A cells) (Homo sapiens (Human), UniProt Q12866). The experiment can be described thus: Mer autophosphorylation ELISA in transient transfected 293A cells (Example H). It counts as cell-based. Particulars: cellular activity; Mer autophosphorylation ELISA in transient transfected 293A cells. In short, it runs like this: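 293A cells transiently transfected with human MERTK were treated 1 h in serum-free medium with an 8-point compound dilution (0.3% DMSO final). Lysates were assayed by phospho-Mer sandwich ELISA against a phospho-Mer standard; IC50 came from a 4-parameter logistic fit, normalised to DMSO (100%) and reference-inhibitor (0%) controls.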
Sequence of Mer (phospho-Mer, MERTK-transfected 293A cells) (Q12866 21-999): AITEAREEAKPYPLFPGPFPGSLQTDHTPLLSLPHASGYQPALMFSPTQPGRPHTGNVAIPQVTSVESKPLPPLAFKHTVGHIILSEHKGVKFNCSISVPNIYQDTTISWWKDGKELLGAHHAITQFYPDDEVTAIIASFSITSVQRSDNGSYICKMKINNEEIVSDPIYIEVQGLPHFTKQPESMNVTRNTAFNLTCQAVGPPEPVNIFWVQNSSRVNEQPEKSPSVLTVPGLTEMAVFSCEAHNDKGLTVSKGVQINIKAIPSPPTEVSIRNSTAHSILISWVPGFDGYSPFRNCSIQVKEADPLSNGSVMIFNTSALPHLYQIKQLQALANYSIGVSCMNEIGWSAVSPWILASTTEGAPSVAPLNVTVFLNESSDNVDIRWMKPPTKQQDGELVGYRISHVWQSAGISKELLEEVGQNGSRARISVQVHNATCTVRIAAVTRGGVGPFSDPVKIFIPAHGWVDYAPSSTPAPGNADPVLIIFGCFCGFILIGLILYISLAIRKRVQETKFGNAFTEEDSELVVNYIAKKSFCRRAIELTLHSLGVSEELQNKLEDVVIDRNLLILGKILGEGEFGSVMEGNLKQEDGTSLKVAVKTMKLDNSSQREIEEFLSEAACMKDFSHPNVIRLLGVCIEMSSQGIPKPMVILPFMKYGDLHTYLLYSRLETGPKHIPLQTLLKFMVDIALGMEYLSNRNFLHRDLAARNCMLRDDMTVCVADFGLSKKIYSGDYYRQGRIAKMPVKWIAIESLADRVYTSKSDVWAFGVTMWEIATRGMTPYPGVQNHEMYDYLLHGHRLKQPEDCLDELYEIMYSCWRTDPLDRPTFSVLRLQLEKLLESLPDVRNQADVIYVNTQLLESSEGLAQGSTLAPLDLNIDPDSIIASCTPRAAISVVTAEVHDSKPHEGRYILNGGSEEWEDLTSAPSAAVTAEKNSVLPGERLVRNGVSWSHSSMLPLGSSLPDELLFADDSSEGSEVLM
(In an ELISA, binding on a coated surface is turned into a signal by an enzyme label.)

In experiment [3] the target is Human MET (residues 956-1390) (Homo sapiens (Human), UniProt P08581). The experiment can be described thus: Human Met kinase assay, HTRF KinEase (Example D-2). It counts as biochemical. Particulars: protocol of Example D-2 (other compounds); read-out: c-Met IC50. In short, it runs like this:
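MET kinase domain (956-1390), 0.1 ng/well, in buffer with 5 mM MgCl2, 1 mM DTT and 1 mM MnCl2, phosphorylated a biotinylated peptide at ATP Km for 40 min at RT; 10 concentrations, 3% DMSO final. EDTA-stopped HTRF read after 60 min; IC50 from a 4-parameter logistic fit.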
For orientation: Time-resolved FRET reads energy transfer from a long-lived donor to a nearby acceptor.

Experiment [4] deals with Human KDR (residues 790-1356) (Homo sapiens (Human), UniProt P35968). The experiment in a line: Human KDR kinase assay, HTRF KinEase (Example B-2). Format: biochemical. Particulars: protocol of Example B-2 (other compounds). In short, it runs like this:
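Human KDR residues 790-1356 (0.1 ng/well) in buffer with 5 mM MgCl2, 1 mM MnCl2, 1 mM DTT, biotinylated peptide substrate, ATP at Km (4.0 μM), 3% DMSO, 10 compound concentrations; 40 min, room temperature. EDTA stop, streptavidin-XL665/Eu-TK antibody HTRF read 665/620 nm; 4-parameter IC50.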

Sequence of Human MET (residues 956-1390) (P08581 956-1390): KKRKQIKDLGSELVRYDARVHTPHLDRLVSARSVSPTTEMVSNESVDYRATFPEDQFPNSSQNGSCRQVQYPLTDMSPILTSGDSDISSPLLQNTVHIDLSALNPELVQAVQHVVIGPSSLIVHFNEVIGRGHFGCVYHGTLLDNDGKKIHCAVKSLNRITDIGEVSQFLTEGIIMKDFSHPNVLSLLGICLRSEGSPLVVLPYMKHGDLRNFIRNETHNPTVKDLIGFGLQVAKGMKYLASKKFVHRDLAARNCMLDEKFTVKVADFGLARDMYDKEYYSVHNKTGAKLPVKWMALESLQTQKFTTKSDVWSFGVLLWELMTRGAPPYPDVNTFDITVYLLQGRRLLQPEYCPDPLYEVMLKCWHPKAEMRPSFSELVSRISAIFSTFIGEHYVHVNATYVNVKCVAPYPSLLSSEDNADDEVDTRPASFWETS
Sequence of Human KDR (residues 790-1356) (P35968 790-1356): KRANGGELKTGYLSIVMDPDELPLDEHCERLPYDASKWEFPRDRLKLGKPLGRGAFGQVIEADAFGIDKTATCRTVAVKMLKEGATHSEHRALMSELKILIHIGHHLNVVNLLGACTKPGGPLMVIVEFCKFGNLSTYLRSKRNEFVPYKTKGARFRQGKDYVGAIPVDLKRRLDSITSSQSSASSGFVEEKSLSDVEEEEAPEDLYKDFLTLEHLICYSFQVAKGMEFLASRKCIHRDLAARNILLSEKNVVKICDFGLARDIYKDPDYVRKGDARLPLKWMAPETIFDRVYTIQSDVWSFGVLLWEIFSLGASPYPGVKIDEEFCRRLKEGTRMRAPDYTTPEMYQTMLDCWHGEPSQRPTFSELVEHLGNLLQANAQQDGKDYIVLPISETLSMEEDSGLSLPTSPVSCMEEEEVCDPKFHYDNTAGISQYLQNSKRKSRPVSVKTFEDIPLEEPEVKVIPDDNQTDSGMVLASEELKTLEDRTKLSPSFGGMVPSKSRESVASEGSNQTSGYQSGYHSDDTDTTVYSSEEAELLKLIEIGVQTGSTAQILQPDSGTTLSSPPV
Sequence of Human MER (residues 528-999) (Q12866 528-999): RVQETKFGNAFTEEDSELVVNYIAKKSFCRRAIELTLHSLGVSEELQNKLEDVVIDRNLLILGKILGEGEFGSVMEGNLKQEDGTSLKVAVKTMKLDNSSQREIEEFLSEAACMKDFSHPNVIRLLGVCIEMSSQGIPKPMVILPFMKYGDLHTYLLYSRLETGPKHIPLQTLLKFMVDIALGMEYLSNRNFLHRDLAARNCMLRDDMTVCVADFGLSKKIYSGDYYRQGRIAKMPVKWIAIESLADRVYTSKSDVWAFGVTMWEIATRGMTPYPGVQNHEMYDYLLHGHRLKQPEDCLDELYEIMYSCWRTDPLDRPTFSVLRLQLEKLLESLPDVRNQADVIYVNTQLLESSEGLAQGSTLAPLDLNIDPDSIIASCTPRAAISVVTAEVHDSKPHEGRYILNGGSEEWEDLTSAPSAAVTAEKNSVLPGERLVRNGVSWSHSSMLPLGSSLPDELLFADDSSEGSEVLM

As for `COc1cc2nccc(Oc3ccc(NC(=O)c4cnc(C)c(-c5ccc(F)cc5)c4O)cc3F)c2nc1Br` [Compound 142, N-[4-[(6-Bromo-7-methoxy-1,5-naphthyridin-4-yl)oxy]-3-fluorophenyl]-5-(4-fluorophenyl)-4-hydroxy-6-methylpyridine-3-carboxamide], the IC50 in experiment [1], in experiment [2], in experiment [3] and in experiment [4] was less than 100 nM throughout.

For the molecule `COc1cc2nccc(Oc3ccc(NC(=O)c4cn(C(C)C)c(C)c(-c5ccc(F)cc5)c4=O)cc3F)c2nc1Br` [Compound 143, N-[4-[(6-Bromo-7-methoxy-1,5-naphthyridin-4-yl)oxy]-3-fluorophenyl]-5-(4-fluorophenyl)-6-methyl-4-oxo-1-propan-2-ylpyridine-3-carboxamide], the IC50 – broadly, the concentration needed to halve the response being measured – was less than 100 nM in experiment [1], less than 100 nM in experiment [2], less than 100 nM in experiment [3] and greater than 300 nM in experiment [4].

For the molecule `COCCOc1nc2c(Oc3ccc(NC(=O)c4cnc(C)c(-c5ccc(F)cc5C)c4O)cc3F)ccnc2cc1OC` [Compound 144, N-[3-Fluoro-4-[[7-methoxy-6-(2-methoxyethoxy)-1,5-naphthyridin-4-yl]oxy]phenyl]-5-(4-fluoro-2-methylphenyl)-4-hydroxy-6-methylpyridine-3-carboxamide], the IC50 in experiment [1], in experiment [2], in experiment [3] and in experiment [4] was less than 100 nM in each case.

On to `COc1cnc2c(Oc3ccc(NC(=O)c4cncc(-c5ccc(F)cc5)c4O)cc3)ccnc2c1` [Compound 146, 5-(4-Fluorophenyl)-4-hydroxy-N-[4-[(7-methoxy-1,5-naphthyridin-4-yl)oxy]phenyl]pyridine-3-carboxamide], for which the IC50 in experiment [1], in experiment [2], in experiment [3] and in experiment [4] was less than 100 nM throughout.

`COc1cnc2c(Oc3ccc(NC(=O)c4cn(C(C)C)c(C)c(-c5ccc(F)cc5)c4=O)cc3)ccnc2c1` [Compound 148, 5-(4-Fluorophenyl)-N-[4-[(7-methoxy-1,5-naphthyridin-4-yl)oxy]phenyl]-6-methyl-4-oxo-1-propan-2-ylpyridine-3-carboxamide]: the IC50 in experiment [1] was less than 100 nM; in experiment [2], less than 100 nM; in experiment [3], less than 100 nM; in experiment [4] it was greater than 300 nM.

Take `Cc1ncc(C(=O)Nc2ccc(Oc3ccnc4cc(C(F)(F)F)cnc34)c(F)c2)c(O)c1-c1ccc(F)cc1` [Compound 151, 5-(4-Fluorophenyl)-N-[3-fluoro-4-[[7-(trifluoromethyl)-1,5-naphthyridin-4-yl]oxy]phenyl]-4-hydroxy-6-methylpyridine-3-carboxamide]: the IC50 in experiment [1] is less than 100 nM; in experiment [2], less than 100 nM; in experiment [3], less than 100 nM; in experiment [4], greater than 300 nM.

Turning to `Cc1nc2c(Oc3ccc(NC(=O)c4cn(C(C)C)c(C)c(-c5ccc(F)cc5)c4=O)cc3F)ccnc2cc1Br` [Compound 153, N-[4-[(7-Bromo-6-methyl-1,5-naphthyridin-4-yl)oxy]-3-fluorophenyl]-5-(4-fluorophenyl)-6-methyl-4-oxo-1-propan-2-ylpyridine-3-carboxamide], the IC50 in experiment [1] is less than 100 nM; in experiment [2] it was less than 100 nM; in experiment [3] it was less than 100 nM; in experiment [4] it was greater than 300 nM.

`COc1cc2nccc(Oc3ccc(NC(=O)c4cnc(C(C)(C)C)c(-c5ccc(F)cc5)c4O)cc3F)c2nc1OC` [Compound 155, 6-tert-Butyl-N-[4-[(6,7-dimethoxy-1,5-naphthyridin-4-yl)oxy]-3-fluorophenyl]-5-(4-fluorophenyl)-4-hydroxypyridine-3-carboxamide]: the half-inhibitory concentration (IC50) in experiment [1] was less than 100 nM; in experiment [2], less than 100 nM; in experiment [3], less than 100 nM; in experiment [4], greater than 300 nM.

Turning to `COc1cnc2c(Oc3ccc(NC(=O)c4cn(C)c(C)c(-c5ccc(F)cc5)c4=O)cc3F)ccnc2c1` [Compound 156, N-[3-Fluoro-4-[(7-methoxy-1,5-naphthyridin-4-yl)oxy]phenyl]-5-(4-fluorophenyl)-1,6-dimethyl-4-oxopyridine-3-carboxamide], the IC50 was less than 100 nM in experiment [1], less than 100 nM in experiment [2], less than 100 nM in experiment [3] and greater than 300 nM in experiment [4].

In the case of `COc1cc2nccc(Oc3ccc(NC(=O)c4cn(CCN5CCOCC5)cc(-c5ccc(F)cc5)c4=O)cc3F)c2nc1OC` [Compound 157, N-[4-[(6,7-Dimethoxy-1,5-naphthyridin-4-yl)oxy]-3-fluorophenyl]-5-(4-fluorophenyl)-1-(2-morpholin-4-ylethyl)-4-oxopyridine-3-carboxamide], the IC50 in experiment [1] was less than 100 nM; in experiment [2], less than 100 nM; in experiment [3], less than 100 nM; in experiment [4], greater than 300 nM.

As for `Cc1c(-c2ccc(F)cc2)c(=O)c(C(=O)Nc2ccc(Oc3ccnc4cc(F)cnc34)c(F)c2)cn1C(C)C` [Compound 162, N-[3-Fluoro-4-[(7-fluoro-1,5-naphthyridin-4-yl)oxy]phenyl]-5-(4-fluorophenyl)-6-methyl-4-oxo-1-propan-2-ylpyridine-3-carboxamide], the IC50 in experiment [1] is 100 to 300 nM; in experiment [2] it was less than 100 nM; in experiment [3], less than 100 nM; in experiment [4] it was greater than 300 nM.

In the case of `CCn1cc(C(=O)Nc2ccc(Oc3ccnc4cc(OC)cnc34)cc2)c(=O)c(-c2ccc(F)cc2)c1C` [Compound 163, 1-Ethyl-5-(4-fluorophenyl)-N-[4-[(7-methoxy-1,5-naphthyridin-4-yl)oxy]phenyl]-6-methyl-4-oxopyridine-3-carboxamide], the IC50 in experiment [1] was less than 100 nM; in experiment [2] it was less than 100 nM; in experiment [3], less than 100 nM; in experiment [4] it was greater than 300 nM.

As for `CCn1cc(C(=O)Nc2ccc(Oc3ccnc4cc(OC)cnc34)c(F)c2)c(=O)c(-c2ccc(F)cc2)c1C` [Compound 164, 1-Ethyl-N-[3-fluoro-4-[(7-methoxy-1,5-naphthyridin-4-yl)oxy]phenyl]-5-(4-fluorophenyl)-6-methyl-4-oxopyridine-3-carboxamide], the half-inhibitory concentration (IC50) in experiment [1] was less than 100 nM; in experiment [2], less than 100 nM; in experiment [3], less than 100 nM; in experiment [4], greater than 300 nM.

`COc1cnc2c(Oc3ccc(NC(=O)c4cn(C(C)(C)C)c(C)c(-c5ccc(F)cc5)c4=O)cc3F)ccnc2c1` [Compound 166, 1-tert-Butyl-N-[3-fluoro-4-[(7-methoxy-1,5-naphthyridin-4-yl)oxy]phenyl]-5-(4-fluorophenyl)-6-methyl-4-oxopyridine-3-carboxamide]: the IC50 in experiment [1] was less than 100 nM; in experiment [2], less than 100 nM; in experiment [3] it was less than 100 nM; in experiment [4], greater than 300 nM.

Regarding `CCn1cc(C(=O)Nc2ccc(Oc3ccnc4cc(OC)c(OC)nc34)cc2)c(=O)c(-c2ccc(F)cc2)c1` [Compound 167, N-[4-[(6,7-Dimethoxy-1,5-naphthyridin-4-yl)oxy]phenyl]-1-ethyl-5-(4-fluorophenyl)-4-oxopyridine-3-carboxamide], the IC50 in experiment [1] was less than 100 nM; in experiment [2] it was less than 100 nM; in experiment [3], less than 100 nM; in experiment [4], 100 to 300 nM.

The values above are taken from patent US12371428B2 (Exelixis, Inc., priority 2019, dated 2025).
